# Test results as given in ChEMBL document CHEMBL1150187, “Two new natural azafluorene alkaloids and a cytotoxic aporphine alkaloid from Polyalthia longifolia” (1990).
# Activity calls are given as the source filed them. The calls are words filed in the database; no cut-off is given here.
# Columns and labels:
# Format in all cases: functional
# KB = assay: Cytotoxicity against human KB cells
# A549 = assay: Cytotoxicity against human A549 cells
# HCT-8 = assay: Cytotoxicity against human HCT8 cells
# P388 = assay: Cytotoxicity against mouse P388 cells
# L1210 = assay: Cytotoxicity against mouse L1210 cells
# [1] = read-out: ED50 (the source's name)
SMILES,Activity (KB),Activity (A549),Activity (HCT-8),Activity (P388),Activity (L1210),EC50 (KB; [1]) [µg/mL],EC50 (A549; [1]) [µg/mL],EC50 (HCT-8; [1]) [µg/mL],EC50 (P388; [1]) [µg/mL],EC50 (L1210; [1]) [µg/mL]
COc1c(O)cc2c(c1OC)-c1nccc(C)c1C2=O,inactive,inactive,inactive,inactive,inactive,–,–,–,–,–
COc1cc2c(cc1OC)-c1nccc(C)c1C2=O,inactive,inactive,inactive,inactive,inactive,–,–,–,–,–
COc1cc2c(cc1O)C(=O)c1c(C)ccnc1-2,inactive,inactive,inactive,inactive,inactive,–,–,–,–,–
O=C1c2ccccc2-c2c3c(cc4ccnc1c24)OCO3 [LIRIODENINE],–,–,–,–,–,1,0.72,0.7,0.57,2.33
C[N+]1([O-])CCc2cc3c(c4c2[C@H]1[C@@H](O)c1ccccc1-4)OCO3 (stereo not given in full),inactive,inactive,inactive,inactive,inactive,–,–,–,–,–
O[C@H]1c2ccccc2-c2c3c(cc4c2[C@@H]1NCC4)OCO3,inactive,inactive,inactive,inactive,inactive,–,–,–,–,–
